Patent US9493436B2, “Tyrosine phosphatase inhibitors and uses thereof to modulate the activity of enzymes involved in the pathology of Mycobacterium tuberculosis” (priority 2011, dated 2016)

Columns and labels:
[1] = target: T1, CD45 (Homo sapiens, UniProt P08575); assay: biochemical; assay type: biochemical
T1 sequence (P08575 26-1306): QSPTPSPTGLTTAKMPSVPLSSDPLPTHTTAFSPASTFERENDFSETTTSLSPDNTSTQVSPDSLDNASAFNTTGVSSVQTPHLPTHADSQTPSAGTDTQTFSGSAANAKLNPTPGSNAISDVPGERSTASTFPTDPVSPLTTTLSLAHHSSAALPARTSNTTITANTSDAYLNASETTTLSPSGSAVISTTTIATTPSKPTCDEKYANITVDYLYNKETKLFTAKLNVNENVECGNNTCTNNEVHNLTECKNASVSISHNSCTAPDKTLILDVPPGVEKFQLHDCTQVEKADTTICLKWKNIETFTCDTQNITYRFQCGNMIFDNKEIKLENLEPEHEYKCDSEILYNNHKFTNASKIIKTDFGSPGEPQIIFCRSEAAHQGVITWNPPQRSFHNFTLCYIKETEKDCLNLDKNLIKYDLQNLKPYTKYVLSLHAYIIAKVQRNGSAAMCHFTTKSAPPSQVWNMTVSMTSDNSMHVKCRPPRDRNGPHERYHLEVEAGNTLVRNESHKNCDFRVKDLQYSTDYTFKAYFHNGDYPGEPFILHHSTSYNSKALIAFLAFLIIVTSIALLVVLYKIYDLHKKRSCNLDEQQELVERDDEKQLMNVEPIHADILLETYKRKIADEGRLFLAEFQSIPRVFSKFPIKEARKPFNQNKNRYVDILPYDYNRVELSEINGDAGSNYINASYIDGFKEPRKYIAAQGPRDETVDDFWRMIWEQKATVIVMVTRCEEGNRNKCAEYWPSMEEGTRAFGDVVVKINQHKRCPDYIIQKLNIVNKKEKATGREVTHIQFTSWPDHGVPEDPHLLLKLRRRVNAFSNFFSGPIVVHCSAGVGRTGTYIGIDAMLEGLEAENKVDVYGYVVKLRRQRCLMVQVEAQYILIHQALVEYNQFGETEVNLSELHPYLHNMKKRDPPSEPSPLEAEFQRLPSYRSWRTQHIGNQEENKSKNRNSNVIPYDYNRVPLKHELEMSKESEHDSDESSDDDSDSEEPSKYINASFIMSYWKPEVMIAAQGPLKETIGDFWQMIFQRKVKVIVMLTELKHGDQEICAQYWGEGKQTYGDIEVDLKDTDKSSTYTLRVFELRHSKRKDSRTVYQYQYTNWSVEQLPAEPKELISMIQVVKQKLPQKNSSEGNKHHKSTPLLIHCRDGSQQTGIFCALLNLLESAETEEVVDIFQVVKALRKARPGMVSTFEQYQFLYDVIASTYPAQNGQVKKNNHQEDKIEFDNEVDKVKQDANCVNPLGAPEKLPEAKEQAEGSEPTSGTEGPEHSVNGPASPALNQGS

[2] = target: LMWPTP (Homo sapiens, UniProt P24666); assay: PTP selectivity panel: LMWPTP; assay type: biochemical
Sequence of LMWPTP (P24666 whole entry, species assumed): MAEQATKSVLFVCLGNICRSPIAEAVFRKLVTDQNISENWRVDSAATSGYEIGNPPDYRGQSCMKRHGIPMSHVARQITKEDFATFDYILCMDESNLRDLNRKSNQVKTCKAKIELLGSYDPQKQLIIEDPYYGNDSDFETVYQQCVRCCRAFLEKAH

[3] = target: T2, VHX (Homo sapiens, UniProt Q9NRW4); assay: biochemical; assay type: biochemical
T2 sequence (Q9NRW4 1-184): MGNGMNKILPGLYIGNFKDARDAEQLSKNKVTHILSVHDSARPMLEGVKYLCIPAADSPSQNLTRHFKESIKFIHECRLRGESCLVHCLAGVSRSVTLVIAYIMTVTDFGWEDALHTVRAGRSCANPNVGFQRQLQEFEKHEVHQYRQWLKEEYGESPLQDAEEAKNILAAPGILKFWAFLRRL

[4] = target: FAP1 (Homo sapiens, UniProt Q12923); assay: biochemical; assay type: biochemical
Sequence of FAP1 (Q12923 whole entry, species assumed): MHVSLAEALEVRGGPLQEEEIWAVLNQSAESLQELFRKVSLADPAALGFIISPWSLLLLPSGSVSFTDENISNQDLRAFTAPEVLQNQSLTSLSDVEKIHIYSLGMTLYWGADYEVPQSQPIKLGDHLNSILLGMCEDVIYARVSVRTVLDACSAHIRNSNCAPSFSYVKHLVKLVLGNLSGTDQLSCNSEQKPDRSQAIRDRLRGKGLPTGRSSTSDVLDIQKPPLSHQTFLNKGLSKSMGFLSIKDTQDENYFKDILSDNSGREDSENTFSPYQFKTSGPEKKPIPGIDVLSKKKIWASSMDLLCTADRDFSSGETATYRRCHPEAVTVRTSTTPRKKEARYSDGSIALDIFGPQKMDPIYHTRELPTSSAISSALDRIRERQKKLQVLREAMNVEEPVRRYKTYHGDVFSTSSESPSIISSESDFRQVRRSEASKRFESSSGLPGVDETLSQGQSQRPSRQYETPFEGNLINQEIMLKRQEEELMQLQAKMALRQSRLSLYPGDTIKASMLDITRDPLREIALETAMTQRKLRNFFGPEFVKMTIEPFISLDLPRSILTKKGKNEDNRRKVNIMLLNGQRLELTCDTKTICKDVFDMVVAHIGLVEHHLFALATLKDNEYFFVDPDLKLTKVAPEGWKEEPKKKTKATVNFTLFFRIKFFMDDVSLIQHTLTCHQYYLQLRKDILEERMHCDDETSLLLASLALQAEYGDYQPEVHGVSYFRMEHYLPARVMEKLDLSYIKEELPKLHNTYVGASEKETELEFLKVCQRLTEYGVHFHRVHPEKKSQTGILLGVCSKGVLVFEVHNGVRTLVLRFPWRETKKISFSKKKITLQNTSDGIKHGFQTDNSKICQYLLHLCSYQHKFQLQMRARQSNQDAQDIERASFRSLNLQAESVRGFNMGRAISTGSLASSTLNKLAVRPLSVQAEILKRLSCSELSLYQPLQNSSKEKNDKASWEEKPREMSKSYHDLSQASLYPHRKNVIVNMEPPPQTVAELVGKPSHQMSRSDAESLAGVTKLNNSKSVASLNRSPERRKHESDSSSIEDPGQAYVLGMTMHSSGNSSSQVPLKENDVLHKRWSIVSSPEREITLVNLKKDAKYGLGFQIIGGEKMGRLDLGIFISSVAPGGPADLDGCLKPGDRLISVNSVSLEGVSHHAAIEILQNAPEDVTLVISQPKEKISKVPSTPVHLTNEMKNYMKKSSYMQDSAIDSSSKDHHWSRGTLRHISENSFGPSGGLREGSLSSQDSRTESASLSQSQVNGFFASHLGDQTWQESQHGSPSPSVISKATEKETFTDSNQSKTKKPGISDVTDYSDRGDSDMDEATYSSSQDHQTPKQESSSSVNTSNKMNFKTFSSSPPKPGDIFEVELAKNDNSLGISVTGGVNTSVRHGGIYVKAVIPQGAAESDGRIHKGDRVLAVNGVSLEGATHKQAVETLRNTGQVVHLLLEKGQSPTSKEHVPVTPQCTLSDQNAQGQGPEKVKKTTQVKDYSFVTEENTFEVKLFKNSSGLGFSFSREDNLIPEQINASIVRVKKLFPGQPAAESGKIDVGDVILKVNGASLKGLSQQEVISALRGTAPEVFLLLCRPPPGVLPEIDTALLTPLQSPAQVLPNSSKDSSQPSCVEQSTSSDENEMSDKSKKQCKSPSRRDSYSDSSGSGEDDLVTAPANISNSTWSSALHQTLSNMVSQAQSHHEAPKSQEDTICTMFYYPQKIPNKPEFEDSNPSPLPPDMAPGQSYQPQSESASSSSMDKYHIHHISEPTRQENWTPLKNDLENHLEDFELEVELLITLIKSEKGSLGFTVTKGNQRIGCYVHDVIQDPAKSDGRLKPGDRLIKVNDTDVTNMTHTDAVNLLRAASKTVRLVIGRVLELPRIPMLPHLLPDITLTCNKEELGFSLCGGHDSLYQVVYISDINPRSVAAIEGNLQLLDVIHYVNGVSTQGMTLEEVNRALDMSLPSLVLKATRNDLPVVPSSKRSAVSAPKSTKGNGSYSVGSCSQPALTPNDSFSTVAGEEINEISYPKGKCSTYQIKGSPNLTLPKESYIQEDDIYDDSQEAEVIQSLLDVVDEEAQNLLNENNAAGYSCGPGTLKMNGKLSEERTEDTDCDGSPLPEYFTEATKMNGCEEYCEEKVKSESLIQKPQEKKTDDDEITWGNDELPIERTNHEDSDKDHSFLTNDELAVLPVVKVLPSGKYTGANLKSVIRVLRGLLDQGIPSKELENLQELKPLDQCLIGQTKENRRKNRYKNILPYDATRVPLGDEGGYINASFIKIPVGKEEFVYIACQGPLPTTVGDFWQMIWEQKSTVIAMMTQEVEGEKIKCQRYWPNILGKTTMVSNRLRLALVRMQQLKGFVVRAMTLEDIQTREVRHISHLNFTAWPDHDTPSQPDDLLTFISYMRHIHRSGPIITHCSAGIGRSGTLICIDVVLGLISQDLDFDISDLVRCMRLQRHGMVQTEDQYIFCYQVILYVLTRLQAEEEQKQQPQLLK

[5] = target: T3, PTP1B (Homo sapiens, UniProt P18031); assay: biochemical; assay type: biochemical
T3 sequence (P18031 1-435): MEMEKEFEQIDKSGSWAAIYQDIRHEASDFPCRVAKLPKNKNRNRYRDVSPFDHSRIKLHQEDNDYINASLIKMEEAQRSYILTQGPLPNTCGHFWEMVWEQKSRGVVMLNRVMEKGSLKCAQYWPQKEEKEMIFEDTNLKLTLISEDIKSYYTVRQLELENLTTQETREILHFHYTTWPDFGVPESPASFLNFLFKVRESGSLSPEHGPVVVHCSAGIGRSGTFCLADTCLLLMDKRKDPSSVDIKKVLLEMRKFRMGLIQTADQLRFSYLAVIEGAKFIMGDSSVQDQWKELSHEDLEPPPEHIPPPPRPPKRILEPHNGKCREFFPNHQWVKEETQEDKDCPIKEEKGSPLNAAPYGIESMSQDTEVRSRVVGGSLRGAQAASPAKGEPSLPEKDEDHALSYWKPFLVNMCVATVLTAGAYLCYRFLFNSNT

[6] = target: T4, TC-PTP (Homo sapiens, UniProt P17706); assay: PTP selectivity panel: TC-PTP; assay type: biochemical; settings: read-out: IC50 (μM) TC-PTP
T4 sequence (P17706 1-415): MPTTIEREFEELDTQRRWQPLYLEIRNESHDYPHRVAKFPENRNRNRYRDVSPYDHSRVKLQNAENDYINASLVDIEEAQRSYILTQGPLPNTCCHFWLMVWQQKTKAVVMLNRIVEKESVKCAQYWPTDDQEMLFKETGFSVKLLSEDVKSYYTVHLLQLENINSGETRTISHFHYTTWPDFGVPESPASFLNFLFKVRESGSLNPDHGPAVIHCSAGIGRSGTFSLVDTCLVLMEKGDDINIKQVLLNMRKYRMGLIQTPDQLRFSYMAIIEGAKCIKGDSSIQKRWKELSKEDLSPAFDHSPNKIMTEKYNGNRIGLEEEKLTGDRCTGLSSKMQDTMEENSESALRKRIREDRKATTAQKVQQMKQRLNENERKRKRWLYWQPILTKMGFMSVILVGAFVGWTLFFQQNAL

[7] = target: SHP1-D1C (Homo sapiens, UniProt P29350); assay: biochemical
Sequence of SHP1-D1C (P29350 244-528 limits assumed): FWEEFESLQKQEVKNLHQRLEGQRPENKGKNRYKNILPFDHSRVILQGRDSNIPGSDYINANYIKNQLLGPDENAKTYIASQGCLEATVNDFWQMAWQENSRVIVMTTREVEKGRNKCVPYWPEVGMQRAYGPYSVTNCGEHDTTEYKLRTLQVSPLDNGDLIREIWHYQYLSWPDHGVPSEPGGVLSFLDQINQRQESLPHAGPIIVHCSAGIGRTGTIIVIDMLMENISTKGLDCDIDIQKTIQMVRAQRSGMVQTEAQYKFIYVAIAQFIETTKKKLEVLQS

[8] = target: SHP2-D2C (Homo sapiens, UniProt Q06124); assay: biochemical; assay type: biochemical
Sequence of SHP2-D2C (Q06124 224-528 limits assumed): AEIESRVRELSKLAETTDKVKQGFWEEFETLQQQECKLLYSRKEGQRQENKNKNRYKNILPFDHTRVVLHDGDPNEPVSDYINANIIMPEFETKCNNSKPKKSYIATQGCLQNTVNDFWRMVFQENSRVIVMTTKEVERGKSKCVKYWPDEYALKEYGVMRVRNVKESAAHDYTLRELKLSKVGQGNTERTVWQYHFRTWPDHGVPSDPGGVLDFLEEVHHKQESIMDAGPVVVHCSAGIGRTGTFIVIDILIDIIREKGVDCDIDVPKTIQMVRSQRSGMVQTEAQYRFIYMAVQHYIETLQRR

[9] = target: T5, HePTP (Homo sapiens, UniProt P35236); assay: biochemical; assay type: biochemical
T5 sequence (P35236 1-360): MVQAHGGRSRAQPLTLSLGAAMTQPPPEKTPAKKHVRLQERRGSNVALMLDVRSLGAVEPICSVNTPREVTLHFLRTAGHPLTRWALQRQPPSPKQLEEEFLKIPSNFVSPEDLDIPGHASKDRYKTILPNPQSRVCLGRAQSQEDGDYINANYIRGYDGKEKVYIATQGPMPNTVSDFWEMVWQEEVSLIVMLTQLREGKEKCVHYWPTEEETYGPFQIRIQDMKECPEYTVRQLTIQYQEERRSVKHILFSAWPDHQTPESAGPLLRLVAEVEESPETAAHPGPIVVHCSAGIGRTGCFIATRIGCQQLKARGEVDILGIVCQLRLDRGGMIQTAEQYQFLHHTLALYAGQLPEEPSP

| SMILES | IC50 [1] [µM] | IC50 [2] [µM] | IC50 [3] [µM] | IC50 [4] [µM] | IC50 [5] [µM] | IC50 [6] [µM] | IC50 [7] [µM] | IC50 [8] [µM] | IC50 [9] [µM] |
| --- | --- | --- | --- | --- | --- | --- | --- | --- | --- |
| O=C(O)c1cc2c(C#Cc3cccc(C(F)(F)F)c3)c(-c3ccccc3)oc2cc1O [32 (L01Z08)] | 4.2 ± 0.5 | 4.3 ± 0.6 | 1.4 ± 0.2 | 1.3 ± 0.2 | 6.7 ± 0.7 | 5.7 ± 0.4 |  |  |  |
| Cn1c(-c2ccccc2C(F)(F)F)c(I)c2cc(C(=O)O)c(O)cc21 [Compound 207a, 6-hydroxy-3-iodo-1-methyl-2-(2-(trifluoromethyl)phenyl)-1H-indole-5-carboxylic acid] | 227 ± 4 |  | 56 ± 1 | 84 ± 1 | 700 ± 100 |  | 86.8 ± 0.4 | 87 ± 4 | 86 ± 6 |
